Experimental data from patent publication US20050282755A1, “Compositions having antimicrobial activity and uses thereof” (priority 2004, published 2005).
Values after ≈ are worked out from the molar mass of the structure shown. Non-standard residues stand in square brackets, D forms with d. Residues, ends and D or L forms follow the SMILES beside them. *: point of attachment. Lauroyl = CCCCCCCCCCCC(=O)*

Experiments:
Type in all cases: cell-based
[1] = tested on: Staphylococcus aureus ATCC 29213; experiment: MIC, NCCLS M7-A6 broth microdilution, cation-adjusted Mueller Hinton broth (Table 9, no superscript); conditions: ATCC 29213
In short: (§1)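 Values come from a broth microdilution assay run in cation-adjusted Mueller Hinton broth with an inoculum of 5×10^5 to 1×10^6 CFU/milliliter, incubated overnight at 37° C and read as absence of visible turbidity.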

[2] = tested on: Escherichia coli ATCC 25922; experiment: MIC, NCCLS M7-A6 broth microdilution (Table 9, no superscript); conditions: ATCC 25922
In short: as §1

[3] = tested on: Pseudomonas aeruginosa ATCC 27853; experiment: as above; conditions: ATCC 27853
In short: as §1

Salmonella dublin (Lane) = experiment: as above
In short: as §1

[4] = tested on: Staphylococcus epidermidis ATCC 12228; experiment: as above; conditions: ATCC 12228
In short: as §1

[5] = tested on: Propionibacterium acnes ATCC 6919; experiment: MIC, agar dilution method NCCLS M11-A6, Brucella agar, anaerobic (Table 9, superscript c); conditions: ATCC 6919
In short: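 MIC taken as the lowest peptide level giving no colonies on the plate. Plates were inoculated to 1.5×10^8 CFU/milliliter, then kept anaerobically at 37° C. for 48-96 hours; method follows NCCLS M11-A6.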

[6] = tested on: Candida albicans ATCC 18804; experiment: MIC in yeasts, NCCLS M27-A2 broth microdilution, RPMI 1640 (Table 9, letter e); conditions: ATCC 18804
In short: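 Plates incubated 24 to 48 hours at 37° C, with yeast seeded at 0.5×10^3–2.5×10^3 CFU/milliliter final in RPMI 1640 (glutamine, phenol red indicator). MIC was read as the lowest peptide concentration showing no visible growth.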

Compound	MIC S. aureus [1] [µg/mL]	MIC E. coli [2] [µg/mL]	MIC P. aeruginosa [3] [µg/mL]	MIC S. dublin (Salmonella dublin (Lane)) [µg/mL]	MIC S. epidermidis [4] [µg/mL]	MIC P. acnes [5] [c ug/mL]	MIC C. albicans [6] [e ug/mL]
CCCCCCCCCCCC(=O)N[C@@H](CO)C(=O)N[C@@H](CCCNC(=N)N)C(=O)N[C@@H](Cc1c[nH]c2ccccc12)C(=O)N[C@@H](CCCNC(=N)N)C(=O)N[C@@H](CC(=O)O)C(=O)N[C@H](C(=O)N[C@@H](C)C(N)=O)C(C)C [Peptide 104, Lauryl-SRWRDVA-NH2] (Lauroyl-SRWRDVA-NH2)	4 (≈ 3.74 µM)	>64	>64	>64	>64	>64	>64
CCCCCCCCCCCC(=O)N[C@H](CCCNC(=N)N)C(=O)N[C@H](CO)C(=O)N[C@H](CCCNC(=N)N)C(=O)N[C@H](Cc1c[nH]c2ccccc12)C(=O)N[C@H](CCCNC(=N)N)C(=O)N[C@H](CC(=O)O)C(=O)N[C@@H](C(=O)N[C@H](C)C(=O)N[C@H](CCCNC(=N)N)C(=O)N[C@H](CC(N)=O)C(=O)N[C@H](Cc1ccccc1)C(N)=O)C(C)C [Peptide 116, Lauryl-rsrwrdvarnf-NH2] (Lauroyl-[dR][dS][dR][dW][dR][dD][dV][dA][dR][dN][dF]-NH2)	8 (≈ 4.87 µM)	8 (≈ 4.87 µM)	8 (≈ 4.87 µM)	8 (≈ 4.87 µM)	4 (≈ 2.43 µM)	8	32
CCCCCCCCCCCC(=O)N[C@H](CCCNC(=N)N)C(=O)N[C@H](CO)C(=O)N[C@H](CCCNC(=N)N)C(=O)N[C@H](Cc1c[nH]c2ccccc12)C(=O)N[C@H](CCCNC(=N)N)C(=O)N[C@H](CC(=O)O)C(=O)N[C@@H](C(=O)N[C@H](C)C(=O)N[C@H](CCCNC(=N)N)C(N)=O)C(C)C [Peptide 118, Lauryl-rsrwrdvar-NH2] (Lauroyl-[dR][dS][dR][dW][dR][dD][dV][dA][dR]-NH2)	8 (≈ 5.79 µM)	64 (≈ 46.3 µM)	32 (≈ 23.1 µM)	>64	8 (≈ 5.79 µM)	16	32
CCCCCCCCCCCC(=O)N[C@H](CCCNC(=N)N)C(=O)N[C@H](CO)C(=O)N[C@H](CCCNC(=N)N)C(=O)N[C@H](Cc1c[nH]c2ccccc12)C(=O)N[C@H](CCCNC(=N)N)C(=O)N[C@H](CC(=O)O)C(=O)N[C@@H](C(N)=O)C(C)C [Peptide 120, Lauryl-rsrwrdv-NH2] (Lauroyl-[dR][dS][dR][dW][dR][dD][dV]-NH2)	16 (≈ 13.8 µM)	>64	64 (≈ 55.4 µM)	>64	16 (≈ 13.8 µM)	64	64
CCCCCCCCCCCC(=O)N[C@H](CCCNC(=N)N)C(=O)N[C@H](Cc1c[nH]c2ccccc12)C(=O)N[C@H](CCCNC(=N)N)C(=O)N[C@H](CC(=O)O)C(=O)N[C@@H](C(=O)N[C@H](C)C(=O)N[C@H](CCCNC(=N)N)C(N)=O)C(C)C [Peptide 122, Lauryl-rwrdvar-NH2] (Lauroyl-[dR][dW][dR][dD][dV][dA][dR]-NH2)	8 (≈ 7.02 µM)	64 (≈ 56.2 µM)	16 (≈ 14 µM)	32 (≈ 28.1 µM)	8 (≈ 7.02 µM)	32	32
CCCCCCCCCCCC(=O)N[C@H](CCCNC(=N)N)C(=O)N[C@H](CC(=O)O)C(=O)N[C@@H](C(=O)N[C@H](C)C(=O)N[C@H](CCCNC(=N)N)C(=O)N[C@H](CC(N)=O)C(=O)N[C@H](Cc1ccccc1)C(=O)N[C@H](CCSC)C(=O)N[C@H](CCCNC(=N)N)C(N)=O)C(C)C [Peptide 128, Lauryl-rdvarnfmr-NH2] (Lauroyl-[dR][dD][dV][dA][dR][dN][dF][dM][dR]-NH2)	16 (≈ 11.9 µM)	32 (≈ 23.8 µM)	32 (≈ 23.8 µM)	32 (≈ 23.8 µM)	8 (≈ 5.94 µM)	16	32
CCCCCCCCCCCC(=O)N[C@H](CCCNC(=N)N)C(=O)N[C@H](Cc1c[nH]c2ccccc12)C(=O)N[C@H](CCCNC(=N)N)C(=O)N[C@H](CC(=O)O)C(=O)N[C@@H](C(=O)N[C@H](C)C(=O)N[C@H](CCCNC(=N)N)C(=O)N[C@H](CC(N)=O)C(=O)N[C@H](Cc1ccccc1)C(=O)N[C@H](CCSC)C(=O)N[C@H](CCCNC(=N)N)C(N)=O)C(C)C [Peptide 130, Lauryl-rwrdvarnfmr-NH2] (Lauroyl-[dR][dW][dR][dD][dV][dA][dR][dN][dF][dM][dR]-NH2)	4 (≈ 2.37 µM)	8 (≈ 4.74 µM)	8 (≈ 4.74 µM)	16 (≈ 9.48 µM)	2 (≈ 1.18 µM)	8	16
